Results on seven molecules are retold here after PMC11915509, “Small molecule inhibitors of hnRNPA2B1–RNA interactions reveal a predictable sorting of RNA subsets into extracellular vesicles” (Nucleic Acids Research, 2025).

“And” between values parts separate entries of the source, which are not always exact repeats. Identical values can stand only once. Counter-ions that a name gives are not always drawn.

The target in data set [1] is T1, hnRNPA2B1-EXOmotif interaction (Homo sapiens, UniProt P22626).
T1 construct: purified a human full-length, GST-tagged protein expressed in Escherichia coli cells; made in house; host or cells: E. coli BL21 (DE3)
Briefly: AlphaScreen dose-response, inhibition of hnRNPA2B1-EXOmotif RNA interaction. Format: binding. The following applies: AlphaScreen dose-response with RNA EXOmotif, one site fitting. (Bead proximity is the source of the signal in Alpha formats.)
Procedure: The assays were performed in OptiPlate-384-well plates (PerkinElmer, 6007299) in 20 μl final volume. The ligands were diluted in AlphaBuffer [25 mM HEPES, pH 7.4, 100 mM NaCl, 0.01% bovine serum albumin (BSA)] and tested using AlphaScreen GST Detection Kit (PerkinElmer, 6760603C). […] For the reactions, 4 μl of the RNA probes were first added to the plate, then 16 μl of a mix containing all the other components was added, and the plate was incubated at room temperature for 1 h in the dark.
The high-throughput drug screening was performed in a total volume of 20 μl using 17 nM of RNA EXO motif (chosen below the hooking point), 30 nM GST-hnRNPA2B1, and 250 nM of compounds belonging to mass spectrometry (MS) Spectrum Collection library (MicroSource, 2000 compounds). Compounds were dispensed into white 384-well Optiplates (PerkinElmer) using Echo 650 acoustic dispenser (Beckman Coulter) followed by the addition of protein in Alpha Buffer using the EL460 dispenser (BioTek). After 15 min of incubation, RNA probes were added by Echo 650 acoustic dispenser, while Donor and Acceptor beads from the GST detection kit (Perkin Elmer) were dispensed by EL460 instrument. Following 60 min of incubation, Alpha signal was detected using Enspire plate reader instrument (PerkinElmer). The raw Alpha counts were normalized to Dimethyl sulfoxide (DMSO)-treated controls within every plate.

The test system of data set [2] is EV miR-221 from NSC34 cells. Briefly: ddPCR of miR-221-3p in NSC34-derived EV-RNA. The following applies: NSC34-derived EVs, 6 h treatment. In kind it is cell-based, mouse. As to the method: EVs were isolated from HEK293T, NSC34, and smNPC-derived motor neurons using nickel-based isolation (NBI) or differential ultracentrifugation (UC). NBI protocol was performed as already described. Briefly, after a first centrifugation step at 2800 × g for 10 min, nickel beads were incubated for 30 min with serum-free media collected from cells in a ratio of 25 μl of beads per ml of medium. After a 2 min centrifugation at 600 g, particles were eluted from the beads by adding 1× elution buffer made of Solution A [16 mM ethylenediaminetetraacetic acid (EDTA), UltraPure, pH 8.0, Thermo Fisher] and Solution B (10 mM NaCl, 225 μM citric acid, Sigma–Aldrich) diluted five times in phosphate-buffered saline (PBS). After 15 min incubation at 28°C in a thermoshaker, the EVs were retrieved by 1-min centrifugation at 1800 × g and subjected to the following characterization. NBI was used to recover polydisperse EVs and include the RNA contribution from these for reverse proteomics experiments. The EV-RNA for reverse proteomics was pooled from three consecutive EV isolation procedures performed on a total of 30 T75 flasks (10 flasks each) of NSC34 cells grown until 80% confluence under standard conditions before washing with PBS and incubating with serum-free medium with glutamine and antibiotics. Differential UC was applied as an alternative EV isolation protocol to confirm the detection of hnRNPA2B1 protein. UC was performed by a SW 32 Ti swinging bucket rotor in an Optima XPN-100 ultracentrifuge (Beckman Coulter, Brea, CA, USA). The cell-conditioned serum-free media, after the first centrifugation step at 2800 × g for 10 min, was put in open-top Ultra-Clear centrifuge tubes (Beckman Coulter-344058) and subjected to 100 000 × g (100 K) UC for 70 min at 4°C under vacuum, with or without an additional step at 10 000 × g (10 K) to first sediment larger particles. Then the supernatant was removed, and the pellet was resuspended in 0.22 μm filtered PBS. Differential UC alone, consisting of 2800 × g for 10 min and 100 000 × g for 70 min, was applied for experiments reported in Fig. 5. […]
RNA from cells was extracted using TRI Reagent® (T9424, Sigma) following the manufacturer’s instructions. Thermo Fisher Nanodrop 2000 Spectrophotometer was used to assess the purity and quantity of extracted RNA. […] The elution was in 10–20 μl of RNase-free water and the RNA profiling and quantification was assessed by Agilent 2100 Bioanalyzer and RNA 6000 Pico Kit (5067-1513). Cell- and EV-RNAs were also analysed with DNF-472 HS RNA (15 nt) Kit (Agilent Technologies, Santa Clara, CA), according to the manufacturer. […] Results were analysed with Agilent ProSize data analysis software, that allows the analysis of RNA size, concentration and quality. […]

Data set [3] deals with hnRNPA2B1 protein association with purine-rich RNA probe. The data set can be described thus: RNA pull-down with biotinylated EXOmotif probe after cell treatment, immunoblotting. Format: cell-based, mouse. The conditions noted are these: NSC34 cells, 6 h, 5 μM compound. As for the experimental part:
To prepare native protein lysates, 1–3 × 10^6 NSC34 cells were lysed in buffer R-Lysis [25 mM HEPES, pH 7.5, 100 mM NaCl, 1× protease inhibitor (Thermo Fisher, 78429)] and subjected to a water-bath sonication (35–40 amplitude, 6–7 cycles of 7 s on and 45 s off). After a centrifugation at 14 000 rpm for 20 min at 4°C, the supernatant was collected and 200 μg were incubated with 5 μl of buffer equilibrated Dynabeads^TM M-280 Streptavidin (Invitrogen, 11205D) for 15 min at 4°C in rotation to perform a pre-clearing step. After the magnetic separation, the pre-cleared lysate was incubated with 10 μl of 100 μM RNA biotinylated probes (or 400 ng of biotinylated EV-RNA) and incubated for 1 h at 4°C in rotation. Then, 5 μl/sample of beads were added and the sample were put again in rotation for 20 min at 4°C. […]
Cells were lysed in lysis buffer [50 mM Tris–HCl, pH 7.4, 150 mM NaCl, 1 mM EDTA, 0.25% NP-40, 0.1% Triton X-100, 0.1% sodium dodecyl sulphate, 1× protease inhibitor (Thermo Fisher, 78429)]. […] The signal was measured with Amersham ECL HRP-Conjugated Antibodies (Cytiva) using BioRad Chemidoc XRS+.

The test system of another data set is EXO-motif RNA probe. The data set can be described thus: Absorbance scan of compounds mixed with EXO-motif RNA. Format: binding. The following applies: EXO-motif RNA probe, 1:5 micromolar ratio. As for the experimental part: (§1) Five μM RNA EXO motif were mixed with 25 μM compounds in AlphaBuffer (25 mM HEPES, pH 7.4, 100 mM NaCl, 0.01% BSA) to a final volume of 20 μl. Absorbance spectrum (200–530 nm) was measured using Tecan Spark® microplate reader with a NanoQuant plate at room temperature. In fluorescence indicator displacement (FID), a 2× final concentration of Midori green advanced (Resnova) was added to the samples and the melting curve measured using Bio-Rad CFX96™ System from 30°C to 90°C.

For data set [4], the system named is hnRNPA2B1 and TDP43 bound RNA (miR-221, miR-1910). The data set can be described thus: RNA immunoprecipitation (RIP) on cytoplasmic lysates of treated NSC34 cells. Format: cell-based, mouse. The conditions noted are these: 6 h treatment, anti-hnRNPA2B1 and anti-TDP43 RIP. As to the method:
Flow cytometry of a fraction of RNA immunoprecipitation (RIP) experiments, consisting of RNA/protein-antibody-bead complexes, was performed on the same instrument using a sequential gating with Streptavidin beads alone ± antibodies (this signal corresponded to background). Pyronin Y (PY) was used at a final concentration of 50 ng/ml and the PY-positive events recorded for 1 min.
Approximately 2 × 10^6 cells were used for each RIP experiment, performed as already described, without cross-linking steps and using 0.5 μg/ml of antibodies. Beads-precipitated samples were divided for immunoblotting or TRIzol-based RNA isolation. Densitometric analysis obtained using Image J software (v.1.54). miRNA TaqMan probes were bought from Thermo Fisher with the following codes: miR-221 (477 981), miR-1910 (479 581), and miR-126 (4 427 975).

A further data set deals with NSC34 cells. The data set can be described thus: Nanodrop quantification of total intracellular RNA after treatment. In kind it is cell-based, mouse. The conditions noted are these: 6 h treatment. As to the method: RNA from cells was extracted using TRI Reagent® ([…], Sigma) following the manufacturer's instructions. Thermo Fisher Nanodrop 2000 Spectrophotometer was used to assess the purity and quantity of extracted RNA. RNA from EVs was extracted using Single Cell RNA Isolation Kit (51800, Norgen) following the manufacturer's protocol. The elution was in 10-20 μl of RNase-free water and the RNA profiling and quantification was assessed by Agilent 2100 Bioanalyzer and RNA 6000 Pico Kit (5067-1513). Cell- and EV-RNAs were also analysed with DNF-472 HS RNA (15 nt) Kit (Agilent Technologies, Santa Clara, CA), according to the manufacturer. Briefly, 2 μl of RNA samples concentrated within a range of 50-5000 pg/μl and RNA Ladder were added to Diluent Marker, denatured at 70°C for 2 min and loaded. Results were analysed with Agilent ProSize data analysis software, that allows the analysis of RNA size, concentration and quality. Through a Peak Analysis it was possible to access the concentration of each peak recognized by the software. Half a nanogram of extracted RNA from cells and EVs was used as input for complementary DNA (cDNA) synthesis. cDNA was produced using TaqManTM Advanced miRNA cDNA Synthesis Kit (Applied BiosystemsTM, A28007) following manufacturers' instructions and used for droplet digital polymerase chain reaction (PCR) experiments.

In another data set the test system is EXO-motif RNA. Briefly: Fluorescence indicator displacement (FID) melting curve, EXO-motif RNA. In kind it is binding. The following applies: 5 μM RNA, 25 μM compound, Midori green. As for the experimental part: as §1
Data set [5] concerns the target T2, GST-hnRNPA2B1 (Homo sapiens, UniProt P22626 1-353). Briefly: AlphaScreen saturation binding; AlphaScreen: 25 mM HEPES pH 7.4, 100 mM NaCl, 0.01% BSA, RT 1 h; REMSA: 20 mM HEPES pH 7.5, 50 mM KCl, 0.5 ug BSA, 0.25% glycerol, RT; pull-down: 25 mM HEPES pH 7.5, 100 mM NaCl, 4 C. The conditions noted are these: protein: recombinant; tags: N-terminal GST (pGEX-6P-1); label: 5'-biotin-TEG; single strand; weak predicted secondary structure (-0.5 kcal/mol).

Data set [6] has as its target T2, GST-hnRNPA2B1. The data set can be described thus: AlphaScreen kinetics (koff/kon); 30 nM protein; kon 523664 M-1 min-1, koff 0.02091 min-1; AlphaScreen: 25 mM HEPES pH 7.4, 100 mM NaCl, 0.01% BSA, RT 1 h; REMSA: 20 mM HEPES pH 7.5, 50 mM KCl, 0.5 ug BSA, 0.25% glycerol, RT; pull-down: 25 mM HEPES pH 7.5, 100 mM NaCl, 4 C. The conditions noted are these: protein: recombinant; tags: N-terminal GST (pGEX-6P-1); label: 5'-biotin-TEG; single strand; weak predicted secondary structure (-0.5 kcal/mol).

The target in data set [7] is T2, GST-hnRNPA2B1. Briefly: AlphaScreen saturation binding; near-background counts; AlphaScreen: 25 mM HEPES pH 7.4, 100 mM NaCl, 0.01% BSA, RT 1 h; REMSA: 20 mM HEPES pH 7.5, 50 mM KCl, 0.5 ug BSA, 0.25% glycerol, RT; pull-down: 25 mM HEPES pH 7.5, 100 mM NaCl, 4 C. The conditions noted are these: protein: recombinant; tags: N-terminal GST (pGEX-6P-1); label: 5'-biotin-TEG; single strand.

T2 sequence (P22626 whole entry): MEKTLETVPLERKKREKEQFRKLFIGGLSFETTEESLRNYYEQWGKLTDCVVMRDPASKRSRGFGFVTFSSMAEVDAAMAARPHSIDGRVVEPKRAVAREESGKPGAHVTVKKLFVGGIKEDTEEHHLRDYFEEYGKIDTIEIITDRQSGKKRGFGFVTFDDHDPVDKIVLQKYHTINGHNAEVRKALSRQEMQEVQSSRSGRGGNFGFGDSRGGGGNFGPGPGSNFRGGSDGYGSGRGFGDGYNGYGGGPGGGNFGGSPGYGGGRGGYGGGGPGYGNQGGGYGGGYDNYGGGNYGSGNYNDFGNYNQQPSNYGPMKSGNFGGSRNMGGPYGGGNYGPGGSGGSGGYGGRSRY
T1 sequence (P22626 whole entry): as above

Consider `O=C(O)C1=CC(=C(c2ccc(O)c(C(=O)O)c2)c2ccc(O)c(C(=O)O)c2)C=CC1=O` [ATA, aurin tricarboxylic Acid, reference compound], for which the IC50 in data set [1] is ~250 nM and 250 nM.

Regarding `O=C(O[C@@H]1Cc2c(O)cc(O)cc2O[C@@H]1c1cc(O)c(=O)c2c(O)c(O)cc([C@H]3Oc4cc(O)cc(O)c4C[C@H]3OC(=O)c3cc(O)c(O)c(O)c3)c2c1)c1cc(O)c(O)c(O)c1` [TD, theaflavin digallate], the “vesicular miR-221, copy number normalized on Y3 RNA and DMSO” value in data set [2] is on record as “vesicular depletion”.

In data set [1], `C=C1c2cccc(O)c2C(=O)C2=C(O)[C@]3(O)C(=O)C(C(N)=O)=C(O)[C@@H](N(C)C)[C@@H]3[C@@H](O)[C@H]12` [MH, methacycline hydrochloride, reference compound] registered an IC50 of 100 nM. Besides, the “association of hnRNPA2B1 protein with exogenous purine-rich RNA probe” value in data set [3] was “most effective”. In addition, in data set [2], the “vesicular miR-221, copy number normalized on Y3 RNA and DMSO” value is “vesicular depletion”.

As for `CC(C)=CC1C(C(=O)OCc2cccc(Oc3ccccc3)c2)C1(C)C` (centres unmarked) [P, phenotrin], the IC50 in [1] is ~120 nM and 122 nM. Also, the “spectroscopic changes at 230 nm” value in the data set on EXO-motif RNA probe was “main spectroscopic changes”. For the same molecule, the “percentage of bound targets (miR-221, miR-1910)” value in data set [4] is “significantly reduced”. Besides, in the data set on NSC34 cells, the “accumulation of intracellular RNAs” value was “significantly higher”. The “vesicular miR-221, copy number normalized on Y3 RNA and DMSO” value in data set [2] is on record as “vesicular depletion”.

For neomycin [reference compound], the “thermal shift of the EXO-motif RNA” value in the data set with EXO-motif RNA was 6.3 °C.

On to GGGGAGGUUAGGGAGGAGGGGGGUAGGCGCC (ssRNA) [EXOmotif RNA (biotin)], for which the Kd with GST-hnRNPA2B1 [5] was 3.4 ± 1.6 nM; in the data set with GST-hnRNPA2B1 [6], 40 ± 3 nM.

Regarding AGGACUGC (ssRNA) [RNA 276], the binding result with GST-hnRNPA2B1 [7] is recorded as “no binding”.

Broadly, the IC50 is the concentration that gives 50% inhibition. Lower therefore signals greater potency in that assay. As usually defined, the Kd is the concentration at which binding is half-saturated.
